Results as given in patent publication US9427433B2, “Methods and compositions for enhancing fertility and/or inhibiting pregnancy failure and restoring glucose tolerance” (Queen's University at Kingston, priority 2011, dated 2016).

Tests used:
Format in all cases: in vivo, mouse
[1] = system: grossly obese and glucose intolerant NZO female mice; assay: Weight loss in grossly obese mice; details: 0.1 mg/kg every other day for four weeks; vs vehicle, p<0.05
Method: Data shown are mean±SEM of changes in body mass in mice administered tacrolimus (0.1 mg/kg every other day) for four weeks starting at week 16 (N=10/group). Statistical difference between groups was measured by one-way ANOVA at 95% confidence.
For studies on a grossly obese state, mice were maintained on the 60% high fat diet for 24 weeks starting at 7 weeks of age and designated as being type II diabetic according to methods described above.

[2] = system: 60% high fat fed NZO and DIO mice; assay: Glucose tolerance test after tacrolimus; details: all treated type 2 diabetic and obese mice; FIG. 16B
Method: Twenty NZO and DIO/B6 female mice were maintained on a high fat diet consisted of 60% kcal fat, 20% kcal protein and 20% kcal carbohydrate, with a total energy mass of 5.24 kcal/gm (D12492, Research Diets Inc.; […] Tacrolimus (Prograf (5 mg/ml), Astellas) was administered subcutaneously in a dose of 0.1 mg/kg q2d in 0.2 ml saline for three weeks to the obese and glucose intolerant NZO and DIO mice starting at the age of 10 weeks after which animals were mated to males of the same strain and pregnancy was dated from the morning of the positive detection of vaginal (copulation) plug. See FIG. 2. […] Briefly, basal glucose levels were measured for conscious mice individually caged in 1000 cc plastic mouse caging using a one-touch ultra glucose strips and meter (Acqui-check Aviva, Roche, Montreal, Canada) and approximately 30 microliters of blood obtained via tail venipuncture prior to fasting for six hours in cages equipped with hardwood bedding. Fasting blood glucose was recorded at the end of the six hours fasting period. […] Then after, blood glucose was recorded at 15, 30, 45, 60, 90 and 120 minutes respectively. For Si experiments blood glucose was determined only at 15 minutes. Glucose tolerance graphs were generated by blotting mean±standard error of the mean (SEM) of the recorded glucose data per mouse per minute collection time. […]

NOD, NZO and DIO mice = assay: Ovarian function, serum estrogen/progesterone, follicle counts and uterine weight ratio
Method: Using Papanicolaou's staining kit (Sigma Aldrich, Oakville, Ontario, Canada), staining of vaginal smears obtained between 09:00-10:00 AM was performed to identify the phases of the estrous cycle and to establish the individual animal cycling pattern as previously described (Koss L. G (Ed): The Papanicolaou Stain. In Diagnostic Cytology and its Histopathological Bases. 4th Edit. Koss, Leopold; Melamed and Myron R. Eds. J.B. Lippincott Williams & Wilkins (LWW), Philadelphia. 1992; Vol. 2: 1211-1221). Blood and virgin uteri were collected from nulliparous diabetic NOD females, at the proestrus, estrus and the metestrus phase, respectively, after four weeks in diabetes. Blood and uteri were also collected from age-matched, tacrolimus-treated nulliparous NOD mice immediately after completing the treatment schedule.
Fifty four NOD mice at the prediabetic and early diabetic stages were carefully selected to match the criteria of being 2 standard deviation heavier in body weight than their age-matched normoglycemic control mice and having blood glucose value of >14.9 mM/1 during the glucose tolerance test. The selected mice were 9 weeks old and were treated with 0.1 mg/kg q2d of tacrolimus (Prograf (5 mg/ml), Astellas) subcutaneously administered in 0.2 ml saline for three weeks after which animals were mated to males of the same strain (See FIG. 1). Vehicle (0.2 ml saline, s.q.) treated hyperglycemic NOD female mice were allowed two weeks in diabetes before they were mated to males of the same strain. Facial (mandibular) venous blood samples were collected from treated animals at 24 and 48 hours between injections and at pregnancy days 0.5, 2.5, 4.5, 6.5, 8.5, 10.5, 12.5, 14.5, 16.5 and 18.5 respectively following a standard procedure for facial bleed in mice (Golde et al Lab Anim (NY) 2005 34:39-43).
Twenty NZO and DIO/B6 female mice were maintained on a high fat diet consisted of 60% kcal fat, 20% kcal protein and 20% kcal carbohydrate, with a total energy mass of 5.24 kcal/gm (D12492, Research Diets Inc.; Cedarlane Laboratories, Burlington, Ontario, Canada) starting at 7 weeks of age and maintained on the diet for a total of 12 weeks of study period during which their weekly body weight changes and non-fasting blood glucose values were recorded. Mice which became obese as defined by having a Body mass index (BMI) value of 30, and tested positive for glucose intolerance were selected for an initial treatment episode with tacrolimus after being fed for four weeks with the high fat diet (See FIG. 2). Tacrolimus (Prograf (5 mg/ml), Astellas) was administered subcutaneously in a dose of 0.1 mg/kg q2d in 0.2 ml saline for three weeks to the obese and glucose intolerant NZO and DIO mice starting at the age of 10 weeks after which animals were mated to males of the same strain and pregnancy was dated from the morning of the positive detection of vaginal (copulation) plug. Facial (mandibular) venous blood samples were collected from treated animals at 24 and 48 hours between injections and at pregnancy days 0.5, 2.5, 4.5, 6.5, 8.5, 10.5, 12.5, 14.5, 16.5 and 18.5, respectively, following a standard procedure for facial bleed in mice (Golde et al. Lab Anim (NY) 2005 34:39-43). A lean cohort of control B6 and BALBc mice was fed with a regular 10 kcal % control chow diet containing the same protein content as the high fat diet with a total energy mass of 3.1 kcal/g (D12450Bi, Cedarlane, Ontario). […]

[3] = short-term administration, FIG. 3B

C=CC[C@@H]1/C=C(\C)C[C@H](C)C[C@H](OC)[C@H]2O[C@@](O)(C(=O)C(=O)N3CCCC[C@H]3C(=O)O[C@H](/C(C)=C/[C@@H]3CC[C@@H](O)[C@H](OC)C3)[C@H](C)[C@@H](O)CC1=O)[C@H](C)C[C@@H]2OC [tacrolimus]
weight loss [1]: induced a significant weight loss
glucose tolerance [2]: restored normal glucose tolerance
ovulation (NOD, NZO and DIO mice; 0.1 mg/kg q2d s.c. for three weeks): enhanced ovulation
ovarian secretion of estrogen and progesterone (NOD, NZO and DIO mice; 0.1 mg/kg q2d s.c. for three weeks, peri- and post-implantation): normalized ovarian secretion of estrogen and progesterone
uterine growth (uterine weight ratio) (NOD, NZO and DIO mice; early proliferative phase (proestrus) of estrous cycle, FIG. 3C): significant improvement in uterine growth
numbers of atretic follicles (NOD, NZO and DIO mice; [3]): reduced numbers of atretic follicles
numbers of secondary follicles, antral follicles and corpora lutea (NOD, NZO and DIO mice; [3]): increased numbers of secondary follicles (FIG. 3B: S), antral follicles (FIG. 3B: A) and corpora lutea (FIG. 3B: CL)
